Reference: US8058475B2, “Substituted cyclohexylmethyl compounds” (Gruenenthal GmbH, priority 2005, dated 2011)
Where a name gives a salt, the structure may show the parent alone. Read-outs that look alike come from different tables or passages of the source.

Tests used:
mouse = test: In vivo studies of analgesia: tail-flick test in the mouse; conditions: iv; for % maximum possible antinociceptive effect at 21.5 mg/kg: dose 21.5 mg/kg (i.v.); for % maximum possible antinociceptive effect at 10 mg/kg: dose 10 mg/kg (i.v.)
Excerpt: In vivo Studies of Analgesia: Tail-flick Test in the Mouse
The mice were each placed individually into a test cage and the base of the tail was exposed to the focused heat ray of an electric lamp (tail-flick type 50/08/1.bc, Labtec, Dr. Hess). The intensity of the lamp was adjusted so that the time from switching on of the lamp to the sudden twitching away of the tail (latency of pain) in untreated mice was from 3 to 5 seconds. Before administration of the solutions comprising the compound according to the invention, or of the particular comparison solutions, the mice were pre-tested twice in the course of five minutes and the mean of these measurements was calculated as the pre-test mean.
The solutions of the compound of the general formula I according to the invention and the comparison solutions were then administered intravenously.
Pain measurement was carried out in each case 10, 20, 40 and 60 minutes following the intravenous administration. The analgesic activity was determined as the increase in the latency of pain (% of the maximum possible antinociceptive effect) according to the following formula: [(T1−T0)/(T2−T0)]×100 where time T0 is the latency before administration, time T1 is the latency after administration of the active ingredient combination and time T2 is the maximum exposure time (12 seconds).
The in-depth study of analgesic activity was carried out in the tail-flick test in the mouse, as described above.

[1] = molecular target: T1, Noradrenaline (NA) reuptake (Rattus norvegicus, UniProt Q63380); test: Noradrenaline (NA) reuptake inhibition in rat brain synaptosomes (hypothalamus, P2 fraction); type: biochemical
T1 construct: synaptosomes are freshly isolated from areas of rat brain; from tissue; host or cells: rat hypothalamus synaptosomes (P2 fraction)
T1 sequence (Q63380 1-617): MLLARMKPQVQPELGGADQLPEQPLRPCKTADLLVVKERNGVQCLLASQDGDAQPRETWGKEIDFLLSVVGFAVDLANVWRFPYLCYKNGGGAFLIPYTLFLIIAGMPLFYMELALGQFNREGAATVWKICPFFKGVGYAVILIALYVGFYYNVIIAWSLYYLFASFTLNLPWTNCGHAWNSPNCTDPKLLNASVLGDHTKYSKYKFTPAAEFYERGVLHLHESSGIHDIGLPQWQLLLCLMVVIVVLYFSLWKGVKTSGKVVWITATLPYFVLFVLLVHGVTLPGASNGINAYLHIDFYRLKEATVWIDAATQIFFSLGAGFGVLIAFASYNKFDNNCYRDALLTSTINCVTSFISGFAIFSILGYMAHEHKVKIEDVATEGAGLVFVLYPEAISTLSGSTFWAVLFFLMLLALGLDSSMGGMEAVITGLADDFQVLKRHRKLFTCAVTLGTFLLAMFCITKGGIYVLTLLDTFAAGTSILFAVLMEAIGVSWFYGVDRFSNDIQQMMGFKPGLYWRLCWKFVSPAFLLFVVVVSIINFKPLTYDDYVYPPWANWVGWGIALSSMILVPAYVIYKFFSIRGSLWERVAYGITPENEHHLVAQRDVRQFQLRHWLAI
In short: (§1)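 Freshly isolated rat brain synaptosomes (P2 fraction, Gray–Whittaker method) used for uptake; for NA uptake the particles came from hypothalamus of male rats.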

human μ-opiate receptor = human μ-opiate receptor (Homo sapiens, UniProt P35372); test: Affinity for the human μ-opiate receptor ([3H]-naloxone displacement, SPA, CHO-K1 membrane preparation); type: binding; conditions: for inhibition at 1 µM: read-out: μ-Opioid receptor, % inhibition [1 μM]; for Ki: read-out: μ-Opioid receptor, Ki
human μ-opiate receptor, sequence (P35372 whole entry): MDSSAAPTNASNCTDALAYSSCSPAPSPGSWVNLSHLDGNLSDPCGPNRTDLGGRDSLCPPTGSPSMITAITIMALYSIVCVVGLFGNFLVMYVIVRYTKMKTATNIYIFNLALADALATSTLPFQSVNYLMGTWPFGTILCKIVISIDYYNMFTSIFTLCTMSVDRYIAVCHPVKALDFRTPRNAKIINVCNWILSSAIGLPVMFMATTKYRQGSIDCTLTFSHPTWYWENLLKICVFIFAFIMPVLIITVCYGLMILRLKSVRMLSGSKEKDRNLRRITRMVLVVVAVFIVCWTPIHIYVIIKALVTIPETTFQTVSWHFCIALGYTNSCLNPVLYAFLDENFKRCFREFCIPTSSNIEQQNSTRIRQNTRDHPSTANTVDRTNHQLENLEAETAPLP

Serotonin (5HT) reuptake = molecular target: T2, Serotonin (5HT) reuptake (Rattus norvegicus, UniProt P31652); test: Serotonin (5HT) reuptake inhibition in rat brain synaptosomes (P2 fraction); type: biochemical; conditions: for inhibition at 10 µM: read-out: Serotonin reuptake, % inhibition [10 μM]
T2 construct: synaptosomes are freshly isolated from areas of rat brain; from tissue; host or cells: rat brain synaptosomes (P2 fraction)
T2 sequence (P31652 whole entry): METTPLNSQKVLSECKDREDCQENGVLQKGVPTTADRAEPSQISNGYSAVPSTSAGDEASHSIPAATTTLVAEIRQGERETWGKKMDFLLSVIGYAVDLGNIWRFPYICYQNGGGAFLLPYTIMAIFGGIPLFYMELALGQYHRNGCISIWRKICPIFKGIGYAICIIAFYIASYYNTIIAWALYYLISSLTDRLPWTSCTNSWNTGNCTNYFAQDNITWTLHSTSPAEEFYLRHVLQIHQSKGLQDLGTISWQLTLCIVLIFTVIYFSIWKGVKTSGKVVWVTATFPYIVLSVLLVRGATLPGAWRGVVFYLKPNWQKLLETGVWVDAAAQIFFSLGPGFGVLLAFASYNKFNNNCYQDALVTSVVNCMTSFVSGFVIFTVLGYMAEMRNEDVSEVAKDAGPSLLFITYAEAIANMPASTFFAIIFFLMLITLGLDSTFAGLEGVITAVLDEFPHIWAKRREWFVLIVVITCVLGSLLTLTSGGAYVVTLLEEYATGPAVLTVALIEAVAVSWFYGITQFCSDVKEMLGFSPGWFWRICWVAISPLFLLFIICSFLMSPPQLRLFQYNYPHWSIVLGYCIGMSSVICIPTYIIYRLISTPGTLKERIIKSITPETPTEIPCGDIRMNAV
In short: as §1

[2] = read-out: NA reuptake, % inhibition [10 μM]
[3] = 1 μM test substance, inhibition of specific [3H]-naloxone binding
[4] = read-out: Na reuptake, % inhibition [10 μM]

Row | SMILES | Ki [1] [nM] | inhibition at 10 µM [1, 2] [%] | inhibition at 1 µM (human μ-opiate receptor; [3]) [%] | Ki (human μ-opiate receptor) [nM] | Ki (Serotonin (5HT) reuptake) [nM] | inhibition at 10 µM (Serotonin (5HT) reuptake) [%] | % maximum possible antinociceptive effect at 10 mg/kg (mouse; read-out: Activity % MPE) [%] | also measured
1 | CN(C)C(c1ccccc1)C1CCC(NC(=O)Nc2ccccc2)CC1.Cl (stereo not drawn) [compound 78, 1-(4-((dimethylamino)(phenyl)methyl)cyclohexyl)-3-phenylurea hydrochloride] | 290 | 98 | 91 | 54 | 160 | 87 |  | ED50 (mouse; head prints (4.64-21.5)): 8.94 mg/kg
2 | CN(C)C(c1ccccc1)C1CCC(NCc2ccc(F)cc2)CC1 (stereo not drawn) [compound 91, 4-((dimethylamino)(phenyl)methyl)-N-(4-fluorobenzyl)cyclohexanamine hydrochloride] |  | 93 | 90 | 8.1 |  | 76 |  | % maximum possible antinociceptive effect at 21.5 mg/kg (mouse; read-out: Activity % MPE): 90%
3 | CC(Cc1c[nH]c2ccccc12)NC1CCC(C(c2ccccc2)N(C)C)CC1 (stereo not drawn) [compound 88, N-(1-(1H-indol-3-yl)propan-2-yl)-4-((dimethylamino)(phenyl)methyl)-cyclohexanamine hydrochloride] |  | 84 | 99 | 2.4 |  | 88 |  | % maximum possible antinociceptive effect at 21.5 mg/kg (mouse; read-out: Activity % MPE): 90%
4 | CCCC(=O)N(Cc1ccccc1)C1CCC(C(c2ccccc2)N(C)C)CC1 (stereo not drawn) [compound 102, N-benzyl-N-(4-((dimethylamino)(phenyl)methyl)cyclohexyl)butyramide hydrochloride] | 130 |  |  | 1.5 | 450 | 85 | 82 | inhibition at 10 µM [1, 4]: 92%; inhibition at 1 µM (human μ-opiate receptor): 94%
5 | CN(C)C(c1ccccc1)C1CCC(NC(=O)NCc2ccccc2)CC1 (stereo not drawn) [compound 79, 1-benzyl-3-(4-((dimethylamino)(phenyl)methyl)cyclohexyl)urea] | 120 | 96 | 103 | 8.3 | 91 | 97 | 76 | 
6 | CN(C)C(c1ccccc1)C1CCC(NCc2ccccc2)CC1 (stereo not drawn) [compound 86, N-benzyl-4-((dimethylamino)(phenyl)methyl)cyclohexanamine hydrochloride] |  | 95 | 98 | 3.8 |  | 88 |  | % maximum possible antinociceptive effect at 21.5 mg/kg (mouse; read-out: Activity % MPE): 100%
7 | CN(C)C(c1ccccc1)C1CCC(NCCCCc2ccccc2)CC1 (stereo not drawn) [compound 87, 4-((dimethylamino)(phenyl)methyl)-N-(4-phenylbutyl)cyclohexanamine hydrochloride] |  | 106 | 85 | 3.7 |  | 95 | 39 | 
8 | CN(C)C(c1ccccc1)C1CCC(O)(Cc2ccc(F)cc2)CC1 (stereo not drawn) [compound 148, 4-((dimethylamino)(phenyl)methyl)-1-(4-fluorobenzyl)cyclohexanol hydrochloride] |  | 97 | 91 |  | 370 | 90 | 40 | 
9 | CN(C)C(c1ccccc1)C1CCC(NC(=O)NC2CCCCC2)CC1 (stereo not drawn) [compound 80, 1-cyclohexyl-3-(4-((dimethylamino)(phenyl)methyl)cyclohexyl)urea] | 490 | 97 | 95 | 20 | 250 | 97 | 59 | 
10 | CN(C)C(c1ccccc1)C1CCC(=NO)CC1 (stereo not drawn) |  |  |  |  |  |  |  | melting point: 110 to 115 °C
11 | CC(=O)N(CCCc1ccccc1)C1CCC(C(c2ccccc2)N(C)C)CC1 (stereo not drawn) [compound 95, N-(4-((dimethylamino)(phenyl)methyl)cyclohexyl)-N-(3-phenylpropyl)acetamide hydrochloride] |  |  |  | 2.5 |  | 66 |  | % maximum possible antinociceptive effect at 1 mg/kg (mouse; dose 1 mg/kg (i.v.), read-out: Activity % MPE): 100%; inhibition at 10 µM [1, 4]: 80%; inhibition at 1 µM (human μ-opiate receptor): 95%
12 | CN(C)C(c1cccs1)C1CCC(=NO)CC1 (stereo not drawn) |  |  |  |  |  |  |  | melting point: 118 to 121 °C
13 | CN(C)C(c1ccccc1)[C@H]1CC[C@H](CCc2ccccc2)CC1 (relative stereo) [compound 146, trans-N,N-dimethyl(4-phenethylcyclohexyl)(phenyl)methanamine hydrochloride] | 600 | 94 | 97 |  | 150 | 92 | 21 | 
14 | CCOC(=O)CC1CCC(C(c2ccccc2)N(C)C)CC1 (stereo not drawn) [compound 124, [4-(dimethylamino-phenyl-methyl)-cyclohexyl]-acetic acid ethyl ester] |  | 76 | 79 | 79 | 97 | 85 |  | 
15 | CN(C)C(c1ccccc1)C1CCC(NS(=O)(=O)c2ccc(C(C)(C)C)cc2)CC1 (stereo not drawn) [compound 108, 4-tert-butyl-N-(4-((dimethylamino)(phenyl)methyl)cyclohexyl)benzene-sulfonamide hydrochloride] |  | 75 |  |  |  | 75 |  | inhibition at 1 µM (human μ-opiate receptor; 1 μM, sulfonamides (Table 17)): 92%; Ki (human μ-opiate receptor; sulfonamides (Table 17)): 22 nM
16 | CC(=O)N(CCCCc1ccccc1)C1CCC(C(c2ccccc2)N(C)C)CC1 (stereo not drawn) [compound 98, N-(4-((dimethylamino)(phenyl)methyl)cyclohexyl)-N-(4-phenylbutyl)-acetamide hydrochloride] | 700 |  |  |  | 630 | 74 | 100 | inhibition at 10 µM [1, 4]: 95%; inhibition at 1 µM (human μ-opiate receptor): 104%
